In patent publication EP1698638A1, “Lipopeptides having pharmaceutical activity” (Technische Universität Berlin, priority 2005, dated 2006):

What was measured:
[1] = system: Acremonium strictum RKI 226/03; assay: microdilution assay (NCCLS), inhibitory concentration (IC); type: cell-based; conditions: RPMI-1640 medium
Description: (§1) More specifically, a determination of inhibitory concentration (IC) of hassallidin A and hassallidin B for various fungi, Candida species and Candida strains were performed with different media (RPMI-1640 or SAB or AM3) in a microdilution assay by following the guidelines in NCCLS documents M^38-P^25 and M27-A2^26 carried out as follows Each substance was dissolved with 100% dimethyl sulfoxide (Serva, Heidelberg, Germany) to give a stock solution of 3.2 mg/ml followed by nine log2 dilution steps with the solvent. This served as a 100-fold concentrated dilution series ranging from 1.6 mg/ml to 0.003 mg/ml of the test substance. The final concentration of the test substance was 16 µg/ml to 0.031 µg/ml.
(§2) Therefore the 100-fold concentrated dilution series (with 100% DMSO) was diluted to the final concentration by two dilution steps: • (1) Each concentration of the 100-fold concentrated substance was diluted with test medium for 1:50 (for ex.: adding of 13 µl of the test substance to 637 µl test medium). • (2) 100 µl of each 1:50 diluted concentration was filled in a row of wells of a microtitre plate. One well was without the substance but with the 1:50 diluted solvent serving as growth control.
(§3) A further 1:2 dilution of the antifungal was made by the inoculation of each well with 100 µl of the test organism, which was suspended in the test medium. The remaining well of the row was used for sterility control of the medium. The inoculum was strictly prepared according the NCCLS^25 guidelines, resulting in […] for Candida-species and Cryptococcus neoformans. For hyphomycetes CFU's were tenfold higher (see NCCLS). ^26 The growth of the hyphomycetes respectively the inhibition was measured by visual reading with the help of a reading mirror; scoring was done according to NCCLS :^26 score 0 corresponds to a optical clear well or an IC95 or higher, score 1 corresponds to an inhibition of 80 percent (IC80) and the score 2 of the NCCLS definition corresponds to the IC50 values in the tables. The growth of the yeasts was measured spectrophotometrically by a microplate reader (MR 5000, Dynatech laboratories) at 630 nm displaying the optical density (OD). The percent inhibition IC50, IC80 or IC95 (corresponding the scores of 2, 1 and 0) was calculated by the following formula: (100−[(ODof the well−ODof the medium)] × 100)/((ODof the growth control−ODof the medium).) [formula] Table 3. Test series for determining IC values of hassallidin A and B in different media using Candida albicans and Candida krusei. The IC values were measured after 24 h and 48 h at 30 °C.

[2] = system: Aspergillus fumigatus RKI 584/00; assay: as above; type: cell-based; conditions: RPMI-1640 medium
Description: as §1, §2, §3

[3] = system: Aspergillus fumigatus RKI 914/02; assay: as above; type: cell-based; conditions: RPMI-1640 medium
Description: as §1, §2, §3

[4] = system: Candida albicans ATCC 90028; assay: as above; type: cell-based; conditions: RPMI-1640 medium
Description: as §1, §2, §3

Candida spp. II = assay: as above; type: cell-based; conditions: RPMI-1640 medium
Description: as §1, §2, §3

Candida spp. I = assay: as above; type: cell-based; conditions: RPMI-1640 medium
Description: as §1, §2, §3

[5] = system: Fusarium solani RKI 144/03; assay: as above; type: cell-based; conditions: RPMI-1640 medium
Description: as §1, §2, §3

[6] = system: Fusarium solani RKI 233/04; assay: as above; type: cell-based; conditions: RPMI-1640 medium
Description: as §1, §2, §3

[7] = system: L 929 (murine aneuploid fibrosarcoma) cells; assay: cytotoxicity assay, IC-Tox50 Kit, resazurin (2nd test); type: cell-based; conditions: down to a concentration of 1.0 µg/mL; decrease of resazurin at 595 nm, 24 h
Description: 2nd test Cytotoxicity assays were further performed using the IC-Tox50 Kit from CCS (Cell Culture Service, Hamburg) according to the manufacturers recommendations in 96-well microtitre plates. L 929 (murine aneuploid fibrosarcoma) cells were used and the activity was followed by recording the decrease of the blue pigment resazurin at 595 nm. Down to a concentration of 1.0 µg/mL a hundred percent inhibition of cell activity was determined for hassallidin A and hassallidin B. The cytotoxity assays using deposited L 929 cells were prepared as follows: • Each well contained 140 µl RPMI-1640 medium, 100 µl resazurin solution and 10 µl test solution of hassallidin A or hassallidin B at different concentrations. To obtain 10 µl test solution, 1 µl / 2 µl / 3 µl or 4µl of a 50% methanolic stock solution (25 µg/ 100 µl) were mixed with 9 µl / 8 µl / 7 µl or 6 µl 50% MeOH. For unhindered cell activity, 10 µl 50% MeOH solution was used as test solution. Solutions of 1µg Na2SeO3 / 10 µl (50% MeOH) and 2 µg Na2SeO3 /10 µl (50% MeOH) were used as positive control. • The absorption difference (t0h-t24h) of resazurin metabolised by L 929 cells is graphically represented in figure 6.

ATCC 6258 (QC) = assay: microdilution assay (NCCLS), inhibitory concentration (IC); type: cell-based, Candida krusei; conditions: Table 4 series, RPMI-1640 medium

## hassallidin A
[1]; 30°C/24h
  IC50: 4 to 8 µg/mL
  IC80: 16 µg/mL
  IC95: 16 µg/mL
[1]; 30°C/48h
  IC50: >16 µg/mL
  IC80: > 16 µg/mL
  IC95: > 16 µg/mL
[2]; 35°C/24h
  IC50: 2 µg/mL
  IC80: 2 µg/mL
  IC95: 2 µg/mL
[2]; 35°C/48h
  IC80: 4 µg/mL
  IC95: 4 µg/mL
[3]; 35°C/24h
  IC50: 2 µg/mL
  IC80: 2 µg/mL
  IC95: 2 µg/mL
[3]; 35°C/48h
  IC50: 2 µg/mL
  IC80: 2 µg/mL
  IC95: 4 µg/mL
[4]; 35°C/24h
  IC50: 8 µg/mL
  IC80: 8 µg/mL
  IC95: 8 µg/mL
[4]; 35°C/48h
  IC50: 8 µg/mL
  IC80: 8 µg/mL
  IC95: 8 µg/mL
Candida spp. II; 35°C/24h
  IC50: 8 µg/mL
  IC80: 8 µg/mL
  IC95: 8 µg/mL
Candida spp. II; 35°C/48h
  IC50: 8 µg/mL
  IC80: 8 µg/mL
  IC95: 8 µg/mL
Candida spp. I; 35°C/24h
  IC50: 8 µg/mL
  IC80: 8 µg/mL
  IC95: 8 µg/mL
Candida spp. I; 35°C/48h
  IC50: 8 µg/mL
  IC80: 8 µg/mL
  IC95: 8 µg/mL
[5]; 30°C/24h
  IC50: 16 µg/mL
  IC80: 16 µg/mL
  IC95: >16 µg/mL
[5]; 30°C/48h
  IC50: >16 µg/mL
  IC80: >16 µg/mL
  IC95: >16 µg/mL
[6]; 30°C/24h
  IC50: 16 µg/mL
  IC80: 16 µg/mL
  IC95: >16 µg/mL
[6]; 30°C/48h
  IC50: >16 µg/mL
  IC80: >16 µg/mL
  IC95: >16 µg/mL
[7]
  inhibition of cell activity: a hundred
ATCC 6258 (QC); 35°C/24h
  IC80: 8 µg/mL
  IC95: 8 µg/mL
ATCC 6258 (QC); 35°C/48h
  IC80: 16 µg/mL

## hassallidin B
[7]
  inhibition of cell activity: a hundred
